Laboratory results reported in patent US20050249857A1, “Lignan complexes” (priority 2002, published 2005).
Converted amounts (≈) assume the structure as drawn. Where two headings read alike, the source gives them in different places.

Assays:
[1] = Phase-solubility study of HMR with HP-β-CD; format: physicochemical; conditions: for solubility at 72 h: acetate buffer, 25 °C, thermodynamic from solid, 0.16 M acetate buffer pH 5.0, μ = 0.5, 25° C., equilibration 72 hours
Description: The phase solubility studies with HMR was also performed with HP-β-CD (0-10%). In the case of HP-β-CD the equilibration time was 72 hours.

[2] = physchem; conditions: 25 °C, pH 5, aqueous buffer, thermodynamic from solid
Description: (§1) The samples from the solubility and stability studies were analysed by using the HPLC system which consist of the UV-detector (L-7400), interface module (D-7000), pump (L-7100) and autosampler (L-7250, Merck Hitachi, Japan). Purospher® reversed phase column (RP-18e, 5 μm, 125×4 mm) was used in all chromatographic separations.
(§2) An excess amount of lignan or lignan ester was added to acetate buffer (0.16 M; pH 5.0; ionic strength 0.5) containing various concentrations of γ-CD (0-10%). The suspensions were shaken in the dark (25° C.) for 24 hour and the pH of the suspensions were monitored during the equilibration. The pH of suspensions was adjusted to 5.0 with HCl or NaOH if necessary. After equilibration, the suspensions were filtered through 0.45 μm membrane filters and analysed by HPLC.

[3] = Chemical stability of HMR in acetate buffer with and without 2% γ-CD; format: physicochemical; conditions: for First-order rate constant kobs for chemical degradation / shelf-life t90% for chemical degradation: 0.16 M acetate buffer pH 5.0, 30° C.; for half-life: acetate buffer, pH 5, 0.16 M acetate buffer pH 5.0, 30° C., read-out: half-life t1/2 for chemical degradation (converted)
Description: All the solutions were prepared by dissolving 1.5-2.0 mg of HMR into 20 ml of the solutions mentioned above, and the concentration of the remaining HMR was determined at appropriate intervals by HPLC. The pseudo-first order rate constant for overall degradation of HMR was determined from the slopes of the linear semilogarithmic plots of remaining HMR versus time. The results of the stability studies were calculated as an average of three determinations.

[4] = Phase-solubility study with γ-CD (Higuchi and Connors); conditions: 0.16 M acetate buffer pH 5.0, μ = 0.5, 25° C., equilibration 24 hours
Description: as §1, §2

Compound	solubility at 24 h [2] [µg/mL]	aqueous solubility ([4]; γ-CD 0 g/100 ml)	aqueous solubility ([4]; γ-CD 1 g/100 ml)	aqueous solubility ([4]; γ-CD 2 g/100 ml) [µg/mL]	aqueous solubility ([4]; γ-CD 5 g/100 ml) [µg/mL]	aqueous solubility ([4]; γ-CD 10 g/100 ml) [µg/mL]	also measured
COc1cc(C[C@H]2C(=O)OC[C@@H]2[C@H](O)c2ccc(O)c(OC)c2)ccc1O [HMR, hydroxymatairesinol]	6700 (≈ 17.9 mM)						effect of HP-β-CD on aqueous solubility ([1]; HP-β-CD 0-10%, pH 5.0): increases aqueous solubility; solubility at 72 h ([1]; pH 5, aqueous buffer, HP-β-CD 0 g/100 ml): 14600 µg/mL (≈ 38.9 mM); solubility at 72 h ([1]; pH 5, aqueous with cosolvent or surfactant or cyclodextrin, HP-β-CD 1 g/100 ml): 14900 µg/mL (≈ 39.8 mM); solubility at 72 h ([1]; pH 5, aqueous with cosolvent or surfactant or cyclodextrin, HP-β-CD 2 g/100 ml): 14900 µg/mL (≈ 39.9 mM); solubility at 72 h ([1]; pH 5, aqueous with cosolvent or surfactant or cyclodextrin, HP-β-CD 5 g/100 ml): 20200 µg/mL (≈ 53.8 mM); solubility at 72 h ([1]; pH 5, aqueous with cosolvent or surfactant or cyclodextrin, HP-β-CD 10 g/100 ml): 26800 µg/mL (≈ 71.7 mM); First-order rate constant kobs for chemical degradation ([3]; with 2% γ-CD): 5.71e-05 h⁻¹; shelf-life t90% for chemical degradation ([3]; with 2% γ-CD): 1845 h; First-order rate constant kobs for chemical degradation ([3]; without γ-CD): 0.000691 h⁻¹; shelf-life t90% for chemical degradation ([3]; without γ-CD): 152 h; half-life ([3]; with 2% γ-CD): 506 days; half-life ([3]; without γ-CD): 41.8 days; increase of chemical stability by 2% γ-CD ([3]; pH 5.0, with versus without 2% γ-CD): about 12 fold; kinetics of overall degradation ([3]; presence and absence of 2% γ-CD at pH 5.0): followed first-order kinetics
COc1cc(C[C@H]2COC(=O)[C@@H]2Cc2ccc(O)c(OC)c2)ccc1O [MR, matairesinol]	490 (≈ 1.37 mM)						
CCCC(=O)Oc1ccc(C[C@H]2COC(=O)[C@@H]2Cc2ccc(OC(=O)CCC)c(OC)c2)cc1OC [MRdiBu, matairesinol dibutyrate]		—* (concentration is under the detection limit of the HPLC method employed.)	—* (concentration is under the detection limit of the HPLC method employed.)	0.87 (≈ 0.00174 mM)	1.21 (≈ 0.00243 mM)	0.84 (≈ 0.00168 mM)	
COc1cc(C[C@@H](CO)[C@H](CO)Cc2ccc(O)c(OC)c2)ccc1O [SECO, secoisolariciresinol]		700 µg/mL (≈ 1.93 mM)	1740 µg/mL (≈ 4.8 mM)	2020 (≈ 5.57 mM)	1780 (≈ 4.91 mM)	390 (≈ 1.08 mM)	
hydroxymatairesinol diacetate [HMRdiAc]		750 µg/mL	1460 µg/mL	2070	940	160	
